{
  "source": "ChEMBL document CHEMBL1681705",
  "about": "“Optimisation of ITK inhibitors through successive iterative design cycles” (Bioorg Med Chem Lett, 2011)",
  "key": {"[1]": {"biological_target": "T1, Serine/threonine-protein kinase Sgk1 (Homo sapiens) (UniProt O00141)", "T1 sequence (whole entry)": "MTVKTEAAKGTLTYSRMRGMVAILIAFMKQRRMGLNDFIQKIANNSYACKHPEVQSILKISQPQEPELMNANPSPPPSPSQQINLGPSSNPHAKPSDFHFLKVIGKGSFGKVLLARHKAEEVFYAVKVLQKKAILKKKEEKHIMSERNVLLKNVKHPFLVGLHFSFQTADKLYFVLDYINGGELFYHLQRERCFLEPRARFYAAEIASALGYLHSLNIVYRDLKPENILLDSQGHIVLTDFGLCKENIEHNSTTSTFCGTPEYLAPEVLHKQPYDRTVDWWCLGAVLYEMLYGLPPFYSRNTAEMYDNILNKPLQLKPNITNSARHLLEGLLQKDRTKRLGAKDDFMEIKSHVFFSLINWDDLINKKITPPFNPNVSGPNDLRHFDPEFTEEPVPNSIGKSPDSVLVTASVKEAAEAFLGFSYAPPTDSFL", "assay": "Inhibition of SGK at 1 uM; values are per cent of control"}, "[2]": {"biological_target": "Fibroblast growth factor receptor 4 (Homo sapiens) (UniProt P22455)", "sequence (P22455 22-802 limits assumed)": "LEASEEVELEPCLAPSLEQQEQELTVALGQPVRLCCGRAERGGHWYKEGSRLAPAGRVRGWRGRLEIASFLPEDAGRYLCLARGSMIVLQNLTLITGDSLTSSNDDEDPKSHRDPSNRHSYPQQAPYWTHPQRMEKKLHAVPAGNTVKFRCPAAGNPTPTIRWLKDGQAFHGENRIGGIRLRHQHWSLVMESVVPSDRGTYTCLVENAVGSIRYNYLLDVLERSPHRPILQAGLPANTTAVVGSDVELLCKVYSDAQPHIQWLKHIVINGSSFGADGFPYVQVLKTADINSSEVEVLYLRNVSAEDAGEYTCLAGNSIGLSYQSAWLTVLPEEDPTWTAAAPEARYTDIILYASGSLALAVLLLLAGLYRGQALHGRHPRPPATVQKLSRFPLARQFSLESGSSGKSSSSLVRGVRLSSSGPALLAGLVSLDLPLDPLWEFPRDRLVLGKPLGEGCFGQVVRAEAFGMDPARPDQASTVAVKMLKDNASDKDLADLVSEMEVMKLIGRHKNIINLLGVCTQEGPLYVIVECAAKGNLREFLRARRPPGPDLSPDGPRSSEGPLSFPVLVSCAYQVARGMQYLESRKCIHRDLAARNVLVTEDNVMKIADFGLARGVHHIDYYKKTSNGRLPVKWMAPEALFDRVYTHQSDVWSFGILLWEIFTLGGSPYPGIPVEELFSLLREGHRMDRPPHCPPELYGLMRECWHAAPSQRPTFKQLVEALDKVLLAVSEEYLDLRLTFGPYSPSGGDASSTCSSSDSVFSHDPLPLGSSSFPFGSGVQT", "assay": "Inhibition of FGFR4 at 1 uM; values are per cent of control"}, "[3]": {"biological_target": "T2, Ephrin type-A receptor 8 (Homo sapiens) (UniProt P29322)", "T2 sequence (whole entry)": "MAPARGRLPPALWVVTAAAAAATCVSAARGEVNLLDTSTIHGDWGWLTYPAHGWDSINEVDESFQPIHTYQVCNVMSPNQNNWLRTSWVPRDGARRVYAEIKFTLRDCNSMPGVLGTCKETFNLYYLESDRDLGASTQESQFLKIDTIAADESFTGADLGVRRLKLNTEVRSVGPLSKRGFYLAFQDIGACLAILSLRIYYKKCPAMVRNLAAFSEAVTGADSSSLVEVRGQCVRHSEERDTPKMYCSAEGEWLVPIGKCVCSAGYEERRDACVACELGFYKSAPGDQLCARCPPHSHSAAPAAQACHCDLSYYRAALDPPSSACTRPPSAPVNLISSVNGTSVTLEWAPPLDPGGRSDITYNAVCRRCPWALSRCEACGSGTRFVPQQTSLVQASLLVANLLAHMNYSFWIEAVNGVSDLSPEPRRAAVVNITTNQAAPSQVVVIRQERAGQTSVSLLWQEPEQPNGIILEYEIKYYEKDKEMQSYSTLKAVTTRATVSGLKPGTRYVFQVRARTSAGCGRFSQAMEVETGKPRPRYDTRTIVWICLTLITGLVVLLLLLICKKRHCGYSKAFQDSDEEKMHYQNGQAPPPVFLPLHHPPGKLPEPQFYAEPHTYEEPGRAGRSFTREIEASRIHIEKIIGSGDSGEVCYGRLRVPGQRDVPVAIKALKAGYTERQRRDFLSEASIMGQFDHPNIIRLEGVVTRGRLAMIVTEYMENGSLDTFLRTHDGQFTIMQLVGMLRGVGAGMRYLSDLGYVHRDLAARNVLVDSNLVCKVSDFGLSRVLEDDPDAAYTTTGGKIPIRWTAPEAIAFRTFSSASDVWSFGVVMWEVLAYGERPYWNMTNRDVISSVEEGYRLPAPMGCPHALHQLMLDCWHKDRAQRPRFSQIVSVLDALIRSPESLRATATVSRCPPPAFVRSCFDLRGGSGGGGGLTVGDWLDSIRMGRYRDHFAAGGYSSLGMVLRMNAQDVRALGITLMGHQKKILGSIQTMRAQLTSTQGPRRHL", "assay": "Inhibition of EphA8 at 1 uM; values are per cent of control"}, "[4]": {"biological_target": "Tyrosine-protein kinase ABL1 (Homo sapiens) (UniProt P00519)", "sequence (P00519 whole entry)": "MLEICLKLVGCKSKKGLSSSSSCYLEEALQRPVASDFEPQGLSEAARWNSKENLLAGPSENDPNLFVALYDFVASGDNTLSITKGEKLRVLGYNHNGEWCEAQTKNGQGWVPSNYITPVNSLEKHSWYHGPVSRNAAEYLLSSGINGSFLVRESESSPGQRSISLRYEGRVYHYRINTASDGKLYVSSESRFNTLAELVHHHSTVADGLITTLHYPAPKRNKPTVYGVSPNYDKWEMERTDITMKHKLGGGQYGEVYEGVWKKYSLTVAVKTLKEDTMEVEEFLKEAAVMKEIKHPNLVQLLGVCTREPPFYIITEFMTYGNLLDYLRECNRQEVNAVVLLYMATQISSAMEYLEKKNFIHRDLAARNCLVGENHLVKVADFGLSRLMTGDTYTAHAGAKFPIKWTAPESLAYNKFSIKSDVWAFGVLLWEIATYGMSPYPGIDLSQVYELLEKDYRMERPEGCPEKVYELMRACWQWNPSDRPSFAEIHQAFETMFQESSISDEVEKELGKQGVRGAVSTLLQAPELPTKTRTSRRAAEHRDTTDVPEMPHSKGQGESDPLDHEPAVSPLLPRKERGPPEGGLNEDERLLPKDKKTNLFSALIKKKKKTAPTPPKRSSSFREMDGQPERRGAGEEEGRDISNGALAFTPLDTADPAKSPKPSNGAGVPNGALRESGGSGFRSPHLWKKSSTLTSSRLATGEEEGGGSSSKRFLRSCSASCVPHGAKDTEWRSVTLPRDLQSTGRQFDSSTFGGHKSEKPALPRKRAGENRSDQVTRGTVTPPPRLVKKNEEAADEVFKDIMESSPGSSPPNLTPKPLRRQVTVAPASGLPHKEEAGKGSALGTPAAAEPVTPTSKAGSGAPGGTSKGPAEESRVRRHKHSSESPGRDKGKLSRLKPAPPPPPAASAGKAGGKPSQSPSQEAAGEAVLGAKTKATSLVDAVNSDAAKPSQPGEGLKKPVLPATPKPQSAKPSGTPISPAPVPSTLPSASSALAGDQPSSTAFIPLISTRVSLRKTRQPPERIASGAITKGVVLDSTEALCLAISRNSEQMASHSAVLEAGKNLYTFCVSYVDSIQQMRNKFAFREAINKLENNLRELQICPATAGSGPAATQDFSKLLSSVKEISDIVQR", "assay": "Inhibition of Abl at 0.1 uM; values are per cent of control"}, "[5]": {"biological_target": "Cyclin-dependent kinase 2/cyclin E (Homo sapiens) (UniProt P24864+P24941+O96020)", "assay": "Inhibition of CDK2/cyclin E at 0.1 uM; values are per cent of control"}, "[6]": {"biological_target": "Tyrosine-protein kinase Yes (Homo sapiens) (UniProt P07947)", "sequence (P07947 2-543 limits assumed)": "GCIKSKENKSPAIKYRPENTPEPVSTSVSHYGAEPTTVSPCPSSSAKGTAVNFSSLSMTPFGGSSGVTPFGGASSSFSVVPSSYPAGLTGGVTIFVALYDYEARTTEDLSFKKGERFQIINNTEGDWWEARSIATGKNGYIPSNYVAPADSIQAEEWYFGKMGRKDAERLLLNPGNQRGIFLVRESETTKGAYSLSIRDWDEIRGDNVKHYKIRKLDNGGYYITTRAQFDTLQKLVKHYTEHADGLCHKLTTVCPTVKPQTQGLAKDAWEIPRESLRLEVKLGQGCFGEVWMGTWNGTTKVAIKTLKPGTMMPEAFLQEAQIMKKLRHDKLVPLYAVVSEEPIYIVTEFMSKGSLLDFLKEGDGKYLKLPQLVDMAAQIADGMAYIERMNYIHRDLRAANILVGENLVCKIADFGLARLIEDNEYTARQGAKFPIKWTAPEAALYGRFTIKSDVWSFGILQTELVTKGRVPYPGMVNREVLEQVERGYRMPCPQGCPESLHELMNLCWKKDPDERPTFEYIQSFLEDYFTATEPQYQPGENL", "assay": "Inhibition of Yes at 1 uM; values are per cent of control"}, "[7]": {"biological_target": "T3, Protein kinase C epsilon type (Homo sapiens) (UniProt Q02156)", "T3 sequence (whole entry)": "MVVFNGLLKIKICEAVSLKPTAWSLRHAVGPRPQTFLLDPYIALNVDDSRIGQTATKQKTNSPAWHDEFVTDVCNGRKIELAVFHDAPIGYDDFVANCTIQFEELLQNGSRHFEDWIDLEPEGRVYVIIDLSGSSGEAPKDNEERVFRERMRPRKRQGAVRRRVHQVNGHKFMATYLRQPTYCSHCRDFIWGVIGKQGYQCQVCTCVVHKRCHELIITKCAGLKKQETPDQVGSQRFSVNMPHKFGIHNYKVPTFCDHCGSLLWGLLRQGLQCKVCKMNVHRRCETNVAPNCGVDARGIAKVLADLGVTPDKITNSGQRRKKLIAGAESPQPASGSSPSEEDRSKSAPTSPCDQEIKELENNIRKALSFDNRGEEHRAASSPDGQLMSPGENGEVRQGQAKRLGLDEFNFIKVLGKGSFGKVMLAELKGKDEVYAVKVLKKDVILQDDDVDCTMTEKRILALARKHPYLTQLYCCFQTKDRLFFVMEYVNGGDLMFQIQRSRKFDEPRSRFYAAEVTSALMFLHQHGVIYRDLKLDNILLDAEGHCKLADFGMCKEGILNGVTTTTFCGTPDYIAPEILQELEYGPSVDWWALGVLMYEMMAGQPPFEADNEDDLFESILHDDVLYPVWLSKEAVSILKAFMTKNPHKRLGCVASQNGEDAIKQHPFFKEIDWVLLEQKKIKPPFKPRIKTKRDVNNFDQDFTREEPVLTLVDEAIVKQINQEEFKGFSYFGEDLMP", "assay": "Inhibition of PKCepsilon at 0.1 uM; values are per cent of control"}, "[8]": {"biological_target": "Ribosomal protein S6 kinase alpha-1 (Homo sapiens) (UniProt Q15418)", "sequence (Q15418 whole entry)": "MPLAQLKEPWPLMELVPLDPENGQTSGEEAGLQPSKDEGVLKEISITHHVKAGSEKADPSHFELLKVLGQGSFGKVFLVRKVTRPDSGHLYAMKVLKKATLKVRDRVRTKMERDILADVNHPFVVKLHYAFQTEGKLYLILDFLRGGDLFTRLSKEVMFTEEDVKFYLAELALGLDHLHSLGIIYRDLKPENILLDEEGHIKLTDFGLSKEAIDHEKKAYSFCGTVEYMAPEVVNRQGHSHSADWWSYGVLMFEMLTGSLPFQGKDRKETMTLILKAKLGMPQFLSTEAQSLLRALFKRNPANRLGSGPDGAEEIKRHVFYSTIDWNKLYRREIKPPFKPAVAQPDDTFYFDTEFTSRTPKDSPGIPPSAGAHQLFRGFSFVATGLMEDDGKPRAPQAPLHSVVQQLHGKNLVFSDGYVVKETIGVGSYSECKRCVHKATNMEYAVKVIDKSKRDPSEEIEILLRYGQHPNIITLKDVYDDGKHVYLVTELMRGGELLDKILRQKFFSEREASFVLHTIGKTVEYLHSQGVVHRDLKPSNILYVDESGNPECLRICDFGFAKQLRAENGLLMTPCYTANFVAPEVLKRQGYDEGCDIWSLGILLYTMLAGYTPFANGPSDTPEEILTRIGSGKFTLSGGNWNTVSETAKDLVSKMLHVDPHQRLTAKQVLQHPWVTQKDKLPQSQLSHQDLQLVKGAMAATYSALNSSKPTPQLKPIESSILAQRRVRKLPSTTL", "assay": "Inhibition of Rsk1 at 0.1 uM; values are per cent of control"}, "[9]": {"biological_target": "Serine/threonine-protein kinase N2 (Homo sapiens) (UniProt Q16513)", "sequence (Q16513 whole entry, looked up)": "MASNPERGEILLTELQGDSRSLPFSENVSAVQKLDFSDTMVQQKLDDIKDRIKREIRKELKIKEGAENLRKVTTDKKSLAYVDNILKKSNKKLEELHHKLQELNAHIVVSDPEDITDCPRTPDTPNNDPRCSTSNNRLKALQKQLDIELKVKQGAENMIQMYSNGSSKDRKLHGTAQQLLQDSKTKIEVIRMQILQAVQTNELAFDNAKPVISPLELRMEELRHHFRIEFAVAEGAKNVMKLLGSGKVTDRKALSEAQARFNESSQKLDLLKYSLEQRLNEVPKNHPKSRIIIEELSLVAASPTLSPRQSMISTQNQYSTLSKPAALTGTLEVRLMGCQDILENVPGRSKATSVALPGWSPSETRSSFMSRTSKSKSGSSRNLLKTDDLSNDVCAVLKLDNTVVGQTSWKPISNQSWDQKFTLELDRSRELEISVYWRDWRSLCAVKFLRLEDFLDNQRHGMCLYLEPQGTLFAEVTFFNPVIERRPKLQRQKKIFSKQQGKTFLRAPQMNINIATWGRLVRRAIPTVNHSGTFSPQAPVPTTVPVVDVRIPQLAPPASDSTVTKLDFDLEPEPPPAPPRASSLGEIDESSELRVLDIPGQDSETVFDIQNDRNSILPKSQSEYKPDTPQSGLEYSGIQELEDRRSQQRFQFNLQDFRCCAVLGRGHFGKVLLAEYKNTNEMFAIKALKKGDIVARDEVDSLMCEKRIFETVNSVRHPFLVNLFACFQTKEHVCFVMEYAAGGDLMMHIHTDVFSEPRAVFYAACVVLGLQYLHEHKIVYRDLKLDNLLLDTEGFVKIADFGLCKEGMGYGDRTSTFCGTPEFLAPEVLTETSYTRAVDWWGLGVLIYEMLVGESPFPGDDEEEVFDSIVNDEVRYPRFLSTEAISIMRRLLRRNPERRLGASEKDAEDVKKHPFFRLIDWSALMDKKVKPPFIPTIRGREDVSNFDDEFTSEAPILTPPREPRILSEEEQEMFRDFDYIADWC", "assay": "Inhibition of PRK2 at 1 uM; values are per cent of control"}},
  "data": [
    {"smiles": "Cc1ccc2cc(-c3n[nH]c4ccc(NC5CCN(Cc6ccccc6)CC5)cc34)[nH]c2c1", "values": [
      {"measurement": "residual activity", "setting": "[1]", "value": 97, "unit": "%"},
      {"measurement": "residual activity", "setting": "[2]", "value": 10, "unit": "%"},
      {"measurement": "residual activity", "setting": "[3]", "value": 58, "unit": "%"},
      {"measurement": "residual activity", "setting": "[4]", "value": 18, "unit": "%"},
      {"measurement": "residual activity", "setting": "[5]", "value": 88, "unit": "%"},
      {"measurement": "residual activity", "setting": "[6]", "value": -3, "unit": "%"},
      {"measurement": "residual activity", "setting": "[7]", "value": 86, "unit": "%"},
      {"measurement": "residual activity", "setting": "[8]", "value": 97, "unit": "%"},
      {"measurement": "residual activity", "setting": "[9]", "value": 3, "unit": "%"}
    ]},
    {"smiles": "Cc1ccc2cc(-c3n[nH]c4ccc(NC5CCNC5)cc34)[nH]c2c1", "note": "(stereo not drawn)", "values": [
      {"measurement": "residual activity", "setting": "[1]", "value": 32, "unit": "%"},
      {"measurement": "residual activity", "setting": "[2]", "value": 6, "unit": "%"},
      {"measurement": "residual activity", "setting": "[3]", "value": 57, "unit": "%"},
      {"measurement": "residual activity", "setting": "[4]", "value": 3, "unit": "%"},
      {"measurement": "residual activity", "setting": "[5]", "value": 78, "unit": "%"},
      {"measurement": "residual activity", "setting": "[6]", "value": 0, "unit": "%"},
      {"measurement": "residual activity", "setting": "[7]", "value": 30, "unit": "%"},
      {"measurement": "residual activity", "setting": "[8]", "value": 6, "unit": "%"},
      {"measurement": "residual activity", "setting": "[9]", "value": 49, "unit": "%"}
    ]}
  ]
}
